The text below walks through data of patent publication US20260027175A1, “COMPOSITIONS AND METHODS FOR TREATING A COGNITIVE DEFICIT” (priority 2022, published 2026).

For assay [1], the system named is c-Jun (substrate of JNK). Briefly: Phospho c-Jun immunofluorescence, high content imaging. The format is cell-based. As to conditions: reference treatment: 1 μM anisomycin 10 μg/mL, 30 min. Here is the method: SACC was received as an aqueous stock solution. The different solutions were created by performing cascade dilutions in the culture medium.
Cells were seeded at 12 10^3 cells/well in 96 well plates and cultured for 24 h. Subsequently, cells were exposed to the different tested conditions (reference treatment: 1 μM anisomycin 10 μg/mL, 30 min). At the end of the treatment, the cells were processed for immunofluorescence with a specific antibody against the phosphorylated form of c-Jun. The fluorescent immune-staining was subsequently imaged by high content imaging. Single cell analysis of the phospho c-Jun immune-staining was performed.
The pharmacological modulators that decreased the cytotoxic effects of 1% SACC did it on the 1% were maximally effective at 50 h treatment. Therefore, the effect of SACC was studied after 50 h treatment with 0.1%; 0.3% and 1% SACC on phosphorylation level of the c-Jun (substrate of JNK).

Assay [2] has as its system BDNF. Kind of assay: Quantification of brain derived neurotrophic factor (BDNF) in hippocampus of ICV-OKA rats. The class given is in vivo, Wistar rats. As to conditions: ICV-OKA rats compared to sham group. Here is the method: Intracerebroventricular injection of okadaic acid was performed according to the procedure of Kamat et al. (2010). Rats were anesthetized with thiopentone (Neon Laboratories, India, 45 mg/kg, i.p.). The scalp was shaved, cleaned, and cut to expose the skull. The head was positioned in a stereotaxic frame and a midline sagittal incision was made in the scalp. Burr holes were drilled in the skull on both sides over the lateral ventricles by using the following coordinates: 0.8 mm posterior to bregma; 1.5 mm lateral to sagittal suture and 3.6 mm beneath the surface of the brain (Paxinos et al., 1980). Okadaic acid (200 ng) was injected bilaterally making the total dose of 100 ng in each ventricle. The concentration of okadaic acid in aCSF was adjusted so as to deliver 4 μl of the solution. Sham animals received ICV injection of the same volume of aCSF. The skin was sutured after injection followed by daily application of antiseptic powder (Neosporin). Postoperatively, the rats were fed with oral glucose and normal pellet diet for 4 days, followed by normal pellet diet alone.
(§1) The experimental design is illustrated in FIG. 1. […] Memory impairment was assessed by Morris Water Maze on days 15th, 21st, 28th. […]
The quantification of BDNF was done with the help and instructions provided by Millipore, USA quantikine rat BDNF immunoassay kit.

For assay [3], the system named is ICV-OKA rats. Briefly: Cognitive performance in Morris water maze task, ICV-OKA rats. The class given is in vivo, Wistar rats. The note with it: ICV injection 100 ng each ventricle, 15th day. Here is the method: Adult male Wistar rats (200-230 g, 2 months old) were used.
Nuclear factor kappa-light-chain-enhancer of activated B cells (NF-KB) and BDNF ELISA kits were procured from Imegenex, San Diego, USA and Millipore, USA respectively. All other chemicals used for biochemical estimations were of analytical grade. SAAC was dissolved in double distilled water (DDW) while okadaic acid was dissolved in artificial cerebrospinal fluid (aCSF) (2.9 mM KCl, 147 mM NaCl, 1.7 mM CaCl2, 1.6 mM MgCl2, and 2.2 mM D-glucose).
(§2) Intracerebroventricular injection of okadaic acid was performed according to the procedure of Kamat et al. (2010). Rats were anesthetized with thiopentone (Neon Laboratories, India, 45 mg/kg, i.p.). The scalp was shaved, cleaned, and cut to expose the skull. The head was positioned in a stereotaxic frame and a midline sagittal incision was made in the scalp. Burr holes were drilled in the skull on both sides over the lateral ventricles by using the following coordinates: 0.8 mm posterior to bregma; 1.5 mm lateral to sagittal suture and 3.6 mm beneath the surface of the brain (Paxinos et al., 1980). […]
as §1
The acquisition and retention of memory was evaluated by using Morris water maze (Morris et al., 1982; Tuzcu and Baydas, 2006). […]

The test system of assay [4] is NF-κβ p65 subunit. Kind of assay: Quantification of NF-KB p65 unit (ActivELISA) in hippocampus of ICV-OKA rats. The format is in vivo, Wistar rats. As to conditions: ICV-OKA administered rats. Here is the method:
as §2, with “1980). Okadaic acid (200 ng) was injected bilaterally making the total dose of 100 ng in each ventricle.” for “1980).”
as §1
The NF-KB/p65 ActivELISA kit (Imgenex, USA) was used to measure NF-KB-free p65 in the nuclear fraction of different brain regions. […] The NF-KB ActivELISA is a sandwich ELISA in which free p65 was captured by anti-p65 antibody-coated plates and the amount of bound p65 was detected by adding a second anti-p65 antibody followed by alkaline phosphatase conjugated secondary antibody using colorimetric detection in an ELISA plate reader at 405 nm. The results were expressed as ng/mg of protein.

Assay [5] deals with Phospho-Tau in neurons. Briefly: Okadaic acid induced Tau hyper-phosphorylation in primary cortical neurons (Phospho-Tau/MAP2 immunofluorescence). The format is cell-based, rat. Here is the method:
The potential efficacy of the test compound (SAAC) against Alzheimer's disease was evaluated using an in vitro model in which Tau hyper-phosphorylation Is Induced by pharmacological treatment.
The test compound was tested in culture medium at […], and 10%. Positive control of reversion of hyperphosphorylation was […] at 3 mM.
Primary cortical cultures from E 19 rat embryos.
Phospho-Tau intensity in neurons and percentage of neurons with hyperphosphorylated Tau.
Cortical neurons from E 19 rat embryos were harvested and plated in 96 well plates. After 9 days in vitro, cells were treated with LiCI at 3 mM for 24 hours as a positive neuroprotective control or the test compound (SAAC) at 7 different concentrations. Another plate was pre-treated with the test compound (SAAC) at 7 different concentrations for 4 hours.
At the end of treatment durations, cells were treated with okadaic acid (OKA) for 3 hours. The cells were then fixed and processed for immunofluorescence analysis of Phospho-Tau (P-Tau) in neurons (Phospho-Tau labelling and neuronal labelling with MAP2 antibody).
After 9 days in vitro, neurons were treated with LiCI at 3 mM for 24 hours as a positive neuroprotective control (FIG. 5) or the test compound (SAAC) at 7 different concentrations (FIG. 7 & FIG. 8). At the end of treatment duration, cells were treated with okadaic acid (OKA) for 3 hours. After Phospho-Tau and MAP2 labelling, the signals were acquired and the mean intensity of Phospho-Tau staining in the neurons as well as the percentage of neurons with a high Phospho-Tau level was assessed.

For `COc1ccc(C[C@H]2NC[C@H](O)[C@H]2OC(C)=O)cc1` [Aniosomycin, anisomycin], the c-Jun phosphorylation result in assay [1] is reported as “induced c-Jun phosphorylation in the total population of treated cells”.
Take `C=C1[C@@H](O)[C@@H]2O[C@]3(CC[C@H](/C=C/[C@@H](C)[C@@H]4CC(C)=C[C@@]5(O[C@H](C[C@@](C)(O)C(=O)O)CC[C@H]5O)O4)O3)CC[C@H]2O[C@@H]1[C@@H](O)C[C@H](C)[C@H]1O[C@@]2(CCCCO2)CC[C@H]1C` [okadaic acid]: the “decrease in brain derived neurotrophic factors” value in assay [2] amounted to 40%. Further, the “lower ability to find the platform and learn its location” value in assay [3] is given as 1.5 fold. For the same molecule, the “elevation of NF-κβ p65 subunit in hippocampus” value in assay [4] is given as 105%. The “increase in the percentage of neurons with high Phospho-Tau levels” value in assay [5] (10 nM okadaic acid, 3 hours) is recorded as approximately 2 fold; in assay [5] (100 nM okadaic acid, 3 hours), approximately 3 fold. Besides, in assay [5] (10 nM okadaic acid, 4 h treatment experiment), the “phosphorylation of Tau” value is on record as “not able to elicit any increase”. For the same molecule, the “phosphorylation of the Tau protein” value in assay [5] (okadaic acid 10 nM and 100 nM, 3 hours) was “increased the phosphorylation of the Tau protein in a dose dependent way”. In assay [5] (okadaic acid treatment alone), the “amount of phosphorylated tau in the axons and dendrites of the neurons” value is on record as “greatly increased”.
